US9580521B1, “Process for making a poly(zwitterion/dianion)” (King Fahd University of Petroleum and Minerals, priority 2013, dated 2017)

Assay: Inhibition of calcium sulfate (gypsum) scaling, conductivity measurements
Details: 20 ppm, supersaturated CaSO4 (3 CB); for 4, 9 and 5 screening by visual inspection under the same conditions
Protocol: The concentration of reject brine (i.e., concentrated brine (CB)) is denoted as 1 CB.
The evaluation of the newly developed scale inhibitor PZA 6 was performed in 3 CB solutions supersaturated with respect to CaSO4 as confirmed from solubility data of CaSO4. To a solution of 6 CB calcium chloride (60 mL) containing PZA 6 (40 ppm i.e. 40 mg/L) at 40° C.±1° C. was added quickly a preheated (40° C.) solution of 6 CB sodium sulfate (60 mL). The resultant 3 CB solution containing 20 ppm of PZA 6 was stirred at 300 rpm using a magnetic stir-bar, and conductivity measurements were made at an interval of every 10 min initially to quantify the effectiveness of the newly developed antiscalant. The drop in conductivity indicates the precipitation of CaSO4. Induction time was measured with a decrease in conductivity when precipitation started. Visual inspection was carefully done to see any turbidity arising from precipitation.
The reject brine in the Reverse Osmosis process has dissolved salts which precipitate in the event of exceeding their solubility limits. […]
A drop in conductivity is indicative of precipitation of CaSO4. […] To our satisfaction, there was no considerable change in conductivity for about 500 min, registering a 98% scale inhibition as calculated using eq 5: […]

For C=CC[N+](CC=C)(CCCP(=O)(OCC)OCC)CCCS(=O)(=O)[O-] [Monomer 4, 3-[diallyl {3-(diethoxyphosphoryl)propyl}ammonio]propane-1-sulfonate], the “CaSO4 scale inhibition (in words)” value was “neither monomers 4 and 9 nor polymer 5 gave any effective inhibition”.
